Drawing on patent US20230272016A1, “PEPTIDES FOR IMMUNOTHERAPY” (Second Genome, Inc., priority 2020, published 2023), this text covers mean_ES_IFN-γ for 72 substances.

In this assay the test system is human T cells. In words: Human T cell activation assay (anti-CD3 plus peptide, cytokine secretion). Type of assay: cell-based. The procedure:
FIGS. 11 and 12 show 150 peptide variants of the SG-3-0020 1-29 aa N-terminal+middle region, derived from a combinatorial phage display library, were tested for activation potential of human T cells. […] Increase in cytokine secretion was concordant in 3 donors.
For example, PBMCs were obtained from individual human donors.
T-cell activation was also determined as described previously (see above and International Application No. PCT/US2020/012431). […] Separate N-, MID, and C-terminal fragments lose activity. The data support that both N- and middle region are minimally required for binding and activation to T cells.

[1] abbreviates: Table 11, 150 combinatorial library variants of SEQ ID NO:1.
Setting [2] is: Table 10, combinatorial library variants of SEQ ID NO:1.

Turning to “PASAAKGKWHDHNPSGRMRDPPWHDWWGS [SEQ ID NO: 327]”, the mean_ES_IFN-γ under setting [1] is given as 0.4162.

In the case of “PVSAAKGKTHDHWPGGRMRDPPWHDWRAS [SEQ ID NO: 329]”, the mean_ES_IFN-γ under setting [1] is reported as 0.3768.

For the substance “FASGAKGKTHDHYPSGRHRPPPWHDWRAS [SEQ ID NO: 316]”, the mean_ES_IFN-γ under setting [1] is reported as 0.5231.

Turning to “WGSGAKGKTHDHNGGGRMRPPPWHDWRAS [SEQ ID NO: 334]”, the mean_ES_IFN-γ under setting [1] was 0.3217.

As for “VSSAAKGKTHDHNPSGRMRPPPWHDWRFS [SEQ ID NO: 322]”, the mean_ES_IFN-γ under setting [1] is reported as 0.4538.

On to “PLSAAKGKWHDHYWSGRMRDPPWHDWRVS [SEQ ID NO: 260]”, for which, under setting [1], the mean_ES_IFN-γ worked out at 0.8986.

In the case of “WSSAAKGKTHDHNPSGRHRPPPWHDWRVS [SEQ ID NO: 304]”, under setting [1], the mean_ES_IFN-γ is reported as 0.6137.

For “MLSTAKGKTHDHWGGGRMRPPPWHDWRFS [SEQ ID NO: 2]”, the mean_ES_IFN-γ is, setting by setting: under setting [2], 1.408; under setting [1], 1.408.

Regarding “WSSGAKTKWHDHNPGGRMRDPPWHDWRGS [SEQ ID NO: 335]”, the mean_ES_IFN-γ under setting [1] is on record as 0.3156.

On to “WLSAAKAKTHDHWGSGRHRPPPWHDWRGS [SEQ ID NO: 315]”, for which, under setting [1], the mean_ES_IFN-γ is reported as 0.5302.

“MASAAKGKTHDHYPSGRMRPPPWHDWRFS [SEQ ID NO: 263]”: under setting [1], the mean_ES_IFN-γ worked out at 0.8848.

Turning to “WGSAAKGKWHDHYPSGRMRPPPWHDWRVR [SEQ ID NO: 275]”, the mean_ES_IFN-γ under setting [1] is reported as 0.8178.

Turning to “VVSGAKGKTHDHNWGGRYRPPPWHDWRGS [SEQ ID NO: 296]”, the mean_ES_IFN-γ under setting [1] is reported as 0.6729.

For “VPSAAKGKWHDHNPGGRHRPPPWHDWRAS [SEQ ID NO: 291]”, the mean_ES_IFN-γ under setting [1] stood at 0.7119.

Take “MPSGAKGKWHDHYGGGRMRDPGWHDWRGS [SEQ ID NO: 317]”: under setting [1], the mean_ES_IFN-γ is reported as 0.5191.

For the substance “FGSGAKGKTHDHWGGGRHRPPPWHDWRGS [SEQ ID NO: 6]”, the mean_ES_IFN-γ amounted to 1.321 under setting [2] and 1.321 under setting [1].

As to “MASGAKGKTHDHYPGGRMRPPPWHDWRAR [SEQ ID NO: 287]”, the mean_ES_IFN-γ under setting [1] is 0.7208.

On to “MPSAAKTKWHDHYPGGRMRPPPWHDWRGR [SEQ ID NO: 16]”, for which the mean_ES_IFN-γ under setting [2] came out at 1.186 and the mean_ES_IFN-γ under setting [1] is on record as 1.186.

Consider “WSSAAKGKTHDHNWSGRHRPPPWHDWRFS [SEQ ID NO: 250]”, for which, under setting [1], the mean_ES_IFN-γ was 0.9527.

“PASGAKTKWHDHNPSGRHRDPPWHDWRVS [SEQ ID NO: 328]”: the mean_ES_IFN-γ under setting [1] is 0.3967.

On to “MASTAKGKTHDHWPGGRMRPPPWHDWRGS [SEQ ID NO: 320]”, for which the mean_ES_IFN-γ under setting [1] stood at 0.5063.

For “MVSTAKGKTHDHYPSGRYRPPPWHDWRFS [SEQ ID NO: 29]”, the mean_ES_IFN-γ was 1.052 under setting [2] and 1.052 under setting [1].

Consider “VGSAAKTKTHDHYGGGRMRPPPWHDWRFS [SEQ ID NO: 331]”, for which the mean_ES_IFN-γ under setting [1] came out at 0.3468.

“MVSTAKGKTHDHYGSGRYRPPPWHDWRGS [SEQ ID NO: 340]”: under setting [1], the mean_ES_IFN-γ was found to be 0.276.

Turning to “FPSGAKTKWHDHNPSGRMRDPPWHDWRFSa [SEQ ID NO: 273]”, the mean_ES_IFN-γ under setting [1] is 0.8203.

Take “VSSAAKGKTHDHYPSGRMRPPPWHDWRGR [SEQ ID NO: 283]”: under setting [1], the mean_ES_IFN-γ stood at 0.7475.

On to “SASAAKGKTHDHWGGGRHRDPPWHDWRFS [SEQ ID NO: 341]”, for which the mean_ES_IFN-γ under setting [1] is on record as 0.2746.

On to “PLSAAKTKTHDHNWSGRYRPPPWHDWRAR [SEQ ID NO: 282]”, for which the mean_ES_IFN-γ under setting [1] was 0.7514.

Turning to “VGSGAKGKTHDHNGSGRYRPPPWHDWRFS [SEQ ID NO: 299]”, the mean_ES_IFN-γ under setting [1] is listed as 0.6497.

With “MGSAAKTKWHDHYGGGRMRPPPWHDWRAR [SEQ ID NO: 247]”, under setting [1], the mean_ES_IFN-γ was 0.9744.

As to “PVSAAKGKWHDHNWSGRMRPPPWHDWRAR [SEQ ID NO: 18]”, the mean_ES_IFN-γ was determined as 1.169 under setting [2] and 1.169 under setting [1].

Regarding “WASGAKGKTHDHYPSGRMRPPPWHDWRWS [SEQ ID NO: 278]”, the mean_ES_IFN-γ under setting [1] amounted to 0.7784.

With “MPSAAKTKWHDHYPSGRMRPPPWHDWRGR [SEQ ID NO: 28]”, the mean_ES_IFN-γ runs as follows: under setting [2], 1.071; under setting [1], 1.071.

Consider “WPSTAKGKTHDHYGGGRMRPPPWHDWRAR [SEQ ID NO: 318]”, for which, under setting [1], the mean_ES_IFN-γ is listed as 0.5137.

Consider “FQSTAKGKTHDHWPSGRMRPPPWHDWRAS [SEQ ID NO: 267]”, for which the mean_ES_IFN-γ under setting [1] came to 0.8487.

On to “FGSAAKGKTHDHYWSGRMRPPPWHDWRGS [SEQ ID NO: 34]”, for which the mean_ES_IFN-γ was 1.028 under setting [2] and 1.028 under setting [1].

In the case of “MSSAAKGKTHDHNWSGRYRPPPWHDWRVR [SEQ ID NO: 242]”, the mean_ES_IFN-γ under setting [1] amounted to 0.9993.

On to “WLSTAKGKTHDHNWSGRYRPPPWHDWRVR [SEQ ID NO: 307]”, for which the mean_ES_IFN-γ under setting [1] is listed as 0.6005.

Take “WGSAAKGKTHDHYGSGRYRDPPWHDWRAR [SEQ ID NO: 32]”: the mean_ES_IFN-γ was found to be 1.038 under setting [2] and 1.038 under setting [1].

“FGSGAKGKTHDHYPSGRMRPPPWHDWRVR [SEQ ID NO: 7]”: the mean_ES_IFN-γ turned out to be 1.319 under setting [2] and 1.319 under setting [1].

With “WGSAAKGKTHDHWPSGRYRDPKWHDWRVS [SEQ ID NO: 21]”, the mean_ES_IFN-γ stood at 1.134 under setting [2] and 1.134 under setting [1].

Consider “MASTAKGKTHDHYGGGRMRPPPWHDWRVR [SEQ ID NO: 314]”, for which the mean_ES_IFN-γ under setting [1] came to 0.5458.

For the substance “FASAAKGKTHDHYPGGRMRPPPWHDWRFS [SEQ ID NO: 254]”, the mean_ES_IFN-γ under setting [1] is recorded as 0.9426.

Take “WSSTAKTKWHDHNGGGRMRPPPWHDWRAR [SEQ ID NO: 305]”: the mean_ES_IFN-γ under setting [1] is 0.612.

Regarding “SSSGAKGKWHDHNPSGRWRDPGWHDWRVR [SEQ ID NO: 325]”, the mean_ES_IFN-γ under setting [1] is 0.4435.

In the case of “WASGAKGKWHDHYGSGRYRPPPWHDWRGS [SEQ ID NO: 290]”, under setting [1], the mean_ES_IFN-γ came to 0.712.

Turning to “MVSTAKGKTHDHYGGGRYRPPPWHDWRAR [SEQ ID NO: 266]”, under setting [1], the mean_ES_IFN-γ came to 0.8498.

Take “WTSAAKGKTHDHYPSGRYRPPPWHDWRVR [SEQ ID NO: 357]”: the mean_ES_IFN-γ under setting [1] was −1.02.

With “WTSAAKTKWHDHYGGGRMRPPPWHDWRAR [SEQ ID NO: 272]”, the mean_ES_IFN-γ under setting [1] was 0.8379.

For the substance “WVSAAKGKTHDHWGSGRHRDPPWHDWRAR [SEQ ID NO: 30]”, the mean_ES_IFN-γ by setting is: under setting [2], 1.052; under setting [1], 1.052.

Regarding “VTSAAKTKWHDHNGSGRYRDPGWHDWRGS [SEQ ID NO: 347]”, under setting [1], the mean_ES_IFN-γ is recorded as 0.01499.

As for “MLSGAKGKTHDHYWGGRMRPPPWHDWRGS [SEQ ID NO: 22]”, the mean_ES_IFN-γ is recorded as 1.134 under setting [2] and 1.134 under setting [1].

For “WGSAAKGKTHDHNWSGRYRPPPWHDWRVS [SEQ ID NO: 302]”, the mean_ES_IFN-γ under setting [1] stood at 0.6264.

As to “WSSAAKGKTHDHYGGGRMRPPPWHDWRAR [SEQ ID NO: 338]”, the mean_ES_IFN-γ under setting [1] turned out to be 0.2829.

On to “MPSAAKTKWHDHNWSGRMRPPPWHDWRAR [SEQ ID NO: 270]”, for which the mean_ES_IFN-γ under setting [1] worked out at 0.8446.

Consider “FASAAKGKTHDHYPSGRYRPPPWHDWRAS [SEQ ID NO: 298]”, for which the mean_ES_IFN-γ under setting [1] was found to be 0.6625.

As to “WSSTAKGKTHDHWPSGRYRPPPWHDWRAR [SEQ ID NO: 35]”, the mean_ES_IFN-γ under setting [2] was 1.009 and the mean_ES_IFN-γ under setting [1] turned out to be 1.009.

In the case of “PSSAAKGKTHDHYPGGRYRPPPWHDWRVS [SEQ ID NO: 264]”, the mean_ES_IFN-γ under setting [1] is listed as 0.8772.

On to “WLSAAKGKTHDHWGSGRWRDPPWHDWRFS [SEQ ID NO: 345]”, for which the mean_ES_IFN-γ under setting [1] was 0.06564.

Take “MASAAKGKWHDHWGSGRHRPPPWHDWRVS [SEQ ID NO: 11]”: the mean_ES_IFN-γ is, setting by setting: under setting [2], 1.237; under setting [1], 1.237.

For “PVSAAKGKWHDHYPSGRWRDPPWHDWRAS [SEQ ID NO: 321]”, the mean_ES_IFN-γ under setting [1] is on record as 0.4882.

As for “SVSAAKGKTHDHYPSGRWRDPPWHDWRAS [SEQ ID NO: 300]”, the mean_ES_IFN-γ under setting [1] came out at 0.645.

On to “MLSAAKTKTHDHWGSGRMRDPPWHDWRVS [SEQ ID NO: 351]”, for which the mean_ES_IFN-γ under setting [1] is given as −0.1331.

For the substance “WSSAAKGKTHDHWGGGRYRPPPWHDWRAS [SEQ ID NO: 17]”, the mean_ES_IFN-γ under setting [2] came to 1.172 and the mean_ES_IFN-γ under setting [1] came to 1.172.

As to “WSSGAKTKWHDHNGSGRYRPPPWHDWRGS [SEQ ID NO: 286]”, the mean_ES_IFN-γ under setting [1] came out at 0.7241.

Turning to “MGSAAKGKWHDHNGSGRMRPPPWHDWRAR [SEQ ID NO: 279]”, under setting [1], the mean_ES_IFN-γ was 0.7782.

Take “MPSAAKGKTHDHYWSGRMRPPPWHDWRVS [SEQ ID NO: 246]”: the mean_ES_IFN-γ under setting [1] was 0.9753.

Consider “FLSGAKGKTHDHYPSGRYRPPPWHDWRAR [SEQ ID NO: 15]”, for which the mean_ES_IFN-γ under setting [2] was 1.193 and the mean_ES_IFN-γ under setting [1] came to 1.193.

On to “FPSGAKTKWHDHNPSGRMRDPPWHDWRFS [SEQ ID NO: 306]”, for which, under setting [1], the mean_ES_IFN-γ was 0.6024.

Turning to “VTSAAKGKTHDHYPSGRMRPPPWHDWRFS [SEQ ID NO: 312]”, the mean_ES_IFN-γ under setting [1] turned out to be 0.5616.

“WPSAAKGKTHDHNPSGRMRPPPWHDWRFS [SEQ ID NO: 26]”: the mean_ES_IFN-γ is on record as 1.078 under setting [2] and 1.078 under setting [1].

Turning to “SSSGAKGKWHDHYGGGRHRDPPWHDWRGS [SEQ ID NO: 344]”, under setting [1], the mean_ES_IFN-γ turned out to be 0.1326.
